Laboratory results from patent US20250250642A1, “APOE GENOTYPING IN CANCER PROGNOSTICS AND TREATMENT” (The Rockefeller University, priority 2019, published 2025).

What was measured:
[1] = tested on: solid cancers; test: RGX-104 in patients with solid cancers, radiographic tumor response by ApoE genotype; assay type: in vivo, human; conditions: monotherapy or combination with docetaxel, nivolumab or ipilimumab
Method: RGX-104 was administered to patients with solid cancers as a monotherapy or in combination with either docetaxel, nivolumab, or ipilimumab. Fifty-one patients were evaluable for both radiographic assessment of tumor response and ApoE genotype. Below is a table showing the number of patients with each genotype and the number of clinical responses (Partial Responses) to the therapy.

[2] = tested on: YUMM1.7 tumors; test: Growth of YUMM1.7 tumors in human APOE knock-in mice under LXR-agonistic treatment; assay type: in vivo, mouse; conditions: RGX-104 in chow, approximate target dose 100 mg/kg body weight, from day 3 post injection
Method: To assess the impact of APOE genotype on the growth of syngeneic melanoma, 1×10^5 YUMM1.7 cells were subcutaneously injected into the flank of 6-10-weeks-old, sex-matched human APOE targeted replacement mice. Cells were injected in a total volume of 100 μL, and YUMM1.7 cells were mixed 1:1 with growth factor reduced Matrigel (356231, Corning) before injection. Tumor size was measured on the indicated days using digital calipers, and tumor volume was calculated as (small diameter)^2×(large diameter)×Π/6. In experiments employing YUMMER1.7 cells, 5×10^5 cells resuspended in PBS were injected subcutaneously into the flank. For LXR-agonistic treatment, mice were administered chow supplemented with the synthetic LXR-agonist RGX-104 (Rgenix (Tavazoie, M., et al. (2018) Cell, 172 (4), 825-840)) at 628.5 mg/kg chow (Research Diets, approximate target dose of 100 mg/kg body weight) starting on day 3 post injection. For anti-PD1 treatment, mice were injected intraperitoneally with 250 μg and 125 μg of anti-PD-1 antibody (BioXCell, clone RMP1-14) on days 6 and 9 post tumor cell injection, respectively. Control mice received PBS injections on the same days. For survival analysis in the YUMMER1.7 model, mice were euthanized when the tumor volume exceeded 1000 mm^3. Therapy responses were considered complete (CR, complete response) when tumor volumes fell below 16 mm^3 (lowest limit of detection).

[3] = ApoE genotype E2/E3 (10 patients)
[4] = ApoE genotype E2/E4 (3 patients)
[5] = ApoE genotype E3/E3 (30 patients)
[6] = ApoE genotype E3/E4 (8 patients)

For C[C@H](CCOc1cccc(CC(=O)O)c1)N(Cc1cccc(C(F)(F)F)c1Cl)CC(c1ccccc1)c1ccccc1 [RGX-104, 2-[3-[(3R)-3-[[2-chloro-3-(trifluoromethyl)phenyl]methyl-(2,2-diphenylethyl)amino]butoxy]phenyl]acetic acid], the “Number of Partial Responses” value [1, 3] was 0, the “Percent of patients with a Partial Response” value (“Percent of patients” for short) [1, 3] was 0% and the “Number of Partial Responses” value [1, 4] was 1. For the same molecule, the “Percent of patients” value [1, 4] was 33.3%, the “Number of Partial Responses” value [1, 5] was 1 and the “Percent of patients” value [1, 5] was 3.3%. The “Number of Partial Responses” value [1, 6] was 1, the “Percent of patients” value [1, 6] was 12.5% and the “efficacy of LXR agonism (tumor growth)” value ([2]; APOE2 mice) was “completely abrogated”. The “efficacy of LXR agonism (tumor growth)” value ([2]; APOE4 mice) was “robust anti-tumor effects”.
